Reference: EP0727211A1, “Use of src SH2 specific compounds to treat a bone resorption disease” (SMITHKLINE BEECHAM CORPORATION, priority 1995, dated 1996)

Biological target: T1, human lck SH2 domain (Homo sapiens, UniProt P06239)
T1 construct: Cloning and expression of human lck SH2 domain containing tags and an enterokinase proteolytic cleavage site; made in house; host or cells: E. coli AR120
Assay: SH2 domain / pY peptide binding assay (ELISA-based, 96 well plate), lck SH2
Details: for Ki: Ki calculated from IC50 by the expanded equation, Table II; for IC50: cloned human SH2 domain fusion protein, 0.1 uM biotinylated pY peptide, Table I
Protocol: The inhibitory activity of compounds at the different human SH2 domains was determined in vitro using SH2 domains expressed as fusion proteins in E. coli. The SH2 domains used herein were the human forms of the src SH2 domain, Grb2 SH2 domain, lck SH2 domain, fyn SH2 domain, SH-PTP2 SH2 domain, p85 SH2 domain and hcp SH2 domain.
The fusion proteins containing the src, lck and hcp SH2 domains were expressed as the general sequence: DET1-DET2-spacer-ek-SH2, where DETI, DET2, spacer, ek and SH2 are as described below. DET1 ("defined epitope tag 1") (SEQ ID NO: 1) is an 11 amino acid sequence found in the Human Immunodeficiency Virus Type 1 (HIV-1) envelope protein gp120 (or gp160). Monoclonal antibodies to various epitopes of HIV-1 gp120 (or gp160) are known in the art, see, for example U.S. Patent 5,166,050. One preferred example is monoclonal antibody 178.1 (see, e.g., Thiriart et al., J. Immunol., 143:1832-1836 (1989)), which was prepared by immunization of mice with a yeast-expressed HIV-1 gp160 molecule from strain BH10 (Ratner et al., Nature, 313:277-284 (1985)). This tag was used for detection of expression (by Western blot), for purification of the protein (by affinity chromatography), and for configuring assays in which the fusion protein was captured or immobilized using the 178.1 antibody. DET2 is a hexahistidine sequence tag (SEQ ID NO: 2) which binds to nickel-containing resins and was used for purification purposes. Spacer (SEQ ID NO: 3) was utilized to design a BamH1 restriction site at the indicated position of the construct. The term -ekrefers to a recognition sequence (SEQ ID NO: 4) for the enterokinase protease which provides for the optional removal of the tags from the SH2 domain, thus producing an SH2 domain that contains no extraneous amino acids. SH2 domains which contain no extraneous amino acids are preferable to tagged protein for crystallography studies. SH2 refers to the SH2 domains of different proteins.
Cloning and expression of human lck SH2 domain containing tags and an enterokinase proteolytic cleavage site (DET1-DET2-spacer-ek-lck SH2).
A DNA sequence encoding protein ek-lck SH2 was PCR amplified from a cDNA clone containing the human lck gene (Genbank accession number M36881) using the following primers: [formula]
The PCR product was digested with BamHI and XbaI, followed by isolation of the digested fragment on an agarose gel. The fragment was ligated into BamHI-XbaI-digested expression vector containing the tagged chicken src gene DET1-DET2-spacer-SH2 described in Procedure 1 above. In that vector, the BamHI site is located in between the coding regions for DET2 and SH2, and the XbaI site is located after the 3' end of the SH2 coding region. Thus, the ek-lck SH2 sequence replaced the src SH2 sequence in the above vector. The ligation reaction was used to transform E. coli MM294cI^+. The construct containing […] was confirmed by DNA sequencing (SEQ ID NO: 6) and induced in E. coli strain AR120 as described in Procedure 1 above. A Coomassie-Blue-stained, Western-blot-positive induced protein band with an apparent molecular weight of 17,000 was observed after nalidixic acid induction.
Cells were lysed at neutral pH by sonication in the presance of lysozyme. After centrifugation, the soluble extract was chromatographed on a Ni^++NTA column. After washing the column with equilibration buffer (Tris buffer pH 8 containing 0.5 M NaCl) and the same buffer containing 15 mM imidazole, the protein was eluted in highly purified form with 25 mM imidazole in equilibration buffer.
The binding assays for the SH2 domains and pY peptides were performed in an ELISA-based 96 well plate assay. In Millipore 96 well filter plates, hydrophilic Durapore® (pore size 0.65um Cat. No. MADVN6550), was added 2 ul (50% suspension) of Protein-G Sepharose (available from Pharmacia of N.J. Cat. No. 17-0618-01) and either 2 ul of 2 mg/ml of MAB178. […]

T1 sequence (P06239 127-224 limits assumed): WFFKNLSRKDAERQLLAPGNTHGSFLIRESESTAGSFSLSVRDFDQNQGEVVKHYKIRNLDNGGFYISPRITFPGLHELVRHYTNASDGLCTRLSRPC

“4-acetamido-benzamido-trans-4-methyl-cyclohexyl-N-1-(amino-R-2-(methoxy methyl)-pyrrolidine) carboxamide [Compound 8]” showed a Ki of 360 µM and an IC50 of 126 µM.
`Cc1nnc(SCC2=C(C(=O)O)N3C(=O)[C@@H](NC(=O)C(N)c4ccc(C(=O)O)cc4)[C@H]3SC2)s1` (stereo partly drawn) [Compound 1, 7-[D,L-α-Amino-α-(4-carboxyphenyl)acetamido]-3-[2-(5-methyl-1,3,4-thiadiazolyl)thiomethyl]Δ^3-cephem-4-carboxylic Acid] showed an IC50 of 6 µM.
`N[C@@H](Cc1cc(Br)c(Oc2ccc(O)c(Cc3ccc(O)nn3)c2)c(Br)c1)C(=O)O` [Compound 2, L-3,5-Dibromo-3'-(6-oxo-3(1H)-pyridazinylmethyl)-thyronine] was tested, and the Ki was over 1000 µM and the IC50 was over 300 µM.
`Cc1nc2sc3c(c2c2[nH][nH]c(=O)c12)CCC1(C3)OCCO1` [Compound 3, 8,8-Ethylenedioxy-2,3,7,8,9,10-hexahydro-4-methyl-1H-benzo[b]thieno[2,3-b]pyrazolo[3,4-d]pyridin-3-one] gave a Ki of 11 µM and an IC50 of 22.9 µM.
`Cc1ccc(C(=O)c2ccc(C(=O)c3ccc(CC=O)cc3)cc2)cc1` [Compound 4, 4-[4-(4-Methylbenzoyl)benzoyl]phenylacetaldehyde] was tested, and the Ki was 163 µM and the IC50 was 163 µM.
For `Cc1nc2sc3c(c2c2c1c(=O)[nH]n2C)CCC1(C3)OCCO1` [Compound 5, 1,4-Dimethyl-8,8-ethylenedioxy-2,3,7,8,9,10-hexahydro-1H-benzo[b]thieno[2,3-b]pyrazolo[3,4-d]pyridin-3-one], the Ki was 149 µM and the IC50 was 100 µM.
Work on `CCCCCCNC(=O)[C@H]1CC[C@H](CNC(=O)c2ccc([N+](=O)[O-])cc2)CC1` [Compound 7, 4-nitro-benzamido-trans-4-methyl-cyclohexyl-N-hexyl carboxamide] yielded a Ki of 320 µM and an IC50 of 383 µM.
`CCCNC(=O)[C@H]1CC[C@H](CNC(=O)/C=C/c2ccc(C=O)cc2)CC1` [Compound 9, 4-formyl-E-cinnamido-trans-4-methyl-cyclohexyl-N-(propyl) carboxamide] was tested, and the Ki was 146 µM and the IC50 was 200 µM.
